Reference: ChEMBL document CHEMBL1201862, “PubChem BioAssay data set” (2004)
Calls of active or inactive are those of the source.

Key:
NS3 = NS3 (Hepatitis C virus, UniProt A3EZJ3); assay: PubChem AID 2173; design: species or system Hepacivirus hominis
Estrogen receptor beta = Estrogen receptor beta (Homo sapiens, UniProt Q92731); assay: blockers of SRC-3 recruitment to ERβ – biochemical, ELISA, streptavidin-HRP readout, orthogonal assay, confirmation (AID 1060)
[1] = target: T1, 1-phosphatidylinositol 4,5-bisphosphate phosphodiesterase gamma-1 (Homo sapiens, UniProt P19174); assay: Counterscreen for inhibitors of phospholipase C isozymes (PLC-B3): Fluorescence-based biochemical high throughput dose response assay to identify inhibitors of phospholipase C isozymes (PLC-gamma1).
T1 sequence (P19174 whole entry): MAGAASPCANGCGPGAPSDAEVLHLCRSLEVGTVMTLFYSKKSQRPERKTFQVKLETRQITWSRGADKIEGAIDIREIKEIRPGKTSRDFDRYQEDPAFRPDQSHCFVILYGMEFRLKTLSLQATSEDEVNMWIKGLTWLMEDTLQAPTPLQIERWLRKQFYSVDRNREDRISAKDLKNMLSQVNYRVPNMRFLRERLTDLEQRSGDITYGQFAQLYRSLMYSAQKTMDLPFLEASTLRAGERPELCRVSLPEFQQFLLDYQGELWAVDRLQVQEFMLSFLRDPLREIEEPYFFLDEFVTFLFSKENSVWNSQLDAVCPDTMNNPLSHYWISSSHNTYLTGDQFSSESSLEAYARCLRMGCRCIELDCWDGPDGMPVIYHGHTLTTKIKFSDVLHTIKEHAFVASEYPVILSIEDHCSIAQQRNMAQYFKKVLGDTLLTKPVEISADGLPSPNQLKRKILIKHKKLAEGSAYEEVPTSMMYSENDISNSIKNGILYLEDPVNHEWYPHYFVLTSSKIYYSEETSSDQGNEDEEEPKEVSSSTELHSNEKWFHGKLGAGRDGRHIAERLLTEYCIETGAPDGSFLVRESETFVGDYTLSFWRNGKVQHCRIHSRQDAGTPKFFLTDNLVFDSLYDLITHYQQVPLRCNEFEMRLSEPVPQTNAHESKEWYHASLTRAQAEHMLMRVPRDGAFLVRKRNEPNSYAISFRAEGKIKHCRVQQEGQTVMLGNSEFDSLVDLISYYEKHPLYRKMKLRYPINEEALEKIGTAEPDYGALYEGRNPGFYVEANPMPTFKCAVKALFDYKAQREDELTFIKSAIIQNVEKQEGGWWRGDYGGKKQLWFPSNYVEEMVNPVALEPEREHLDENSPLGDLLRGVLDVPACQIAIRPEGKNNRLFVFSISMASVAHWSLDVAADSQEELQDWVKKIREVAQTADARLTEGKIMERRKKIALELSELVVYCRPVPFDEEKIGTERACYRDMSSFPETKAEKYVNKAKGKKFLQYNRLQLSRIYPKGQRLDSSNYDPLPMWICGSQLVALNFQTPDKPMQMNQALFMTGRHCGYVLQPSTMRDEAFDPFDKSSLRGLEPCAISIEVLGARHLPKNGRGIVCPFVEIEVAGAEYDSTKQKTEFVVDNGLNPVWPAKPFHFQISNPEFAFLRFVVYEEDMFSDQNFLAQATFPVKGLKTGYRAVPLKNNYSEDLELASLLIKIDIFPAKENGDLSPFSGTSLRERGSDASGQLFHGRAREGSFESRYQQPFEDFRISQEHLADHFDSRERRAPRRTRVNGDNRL

[2] = target: T2, 1-phosphatidylinositol 4,5-bisphosphate phosphodiesterase beta-3 (Homo sapiens, UniProt Q01970); assay: Fluorescence-based biochemical high throughput dose response assay to identify inhibitors of phospholipase C isozymes (PLC-B3).
T2 sequence (Q01970 whole entry): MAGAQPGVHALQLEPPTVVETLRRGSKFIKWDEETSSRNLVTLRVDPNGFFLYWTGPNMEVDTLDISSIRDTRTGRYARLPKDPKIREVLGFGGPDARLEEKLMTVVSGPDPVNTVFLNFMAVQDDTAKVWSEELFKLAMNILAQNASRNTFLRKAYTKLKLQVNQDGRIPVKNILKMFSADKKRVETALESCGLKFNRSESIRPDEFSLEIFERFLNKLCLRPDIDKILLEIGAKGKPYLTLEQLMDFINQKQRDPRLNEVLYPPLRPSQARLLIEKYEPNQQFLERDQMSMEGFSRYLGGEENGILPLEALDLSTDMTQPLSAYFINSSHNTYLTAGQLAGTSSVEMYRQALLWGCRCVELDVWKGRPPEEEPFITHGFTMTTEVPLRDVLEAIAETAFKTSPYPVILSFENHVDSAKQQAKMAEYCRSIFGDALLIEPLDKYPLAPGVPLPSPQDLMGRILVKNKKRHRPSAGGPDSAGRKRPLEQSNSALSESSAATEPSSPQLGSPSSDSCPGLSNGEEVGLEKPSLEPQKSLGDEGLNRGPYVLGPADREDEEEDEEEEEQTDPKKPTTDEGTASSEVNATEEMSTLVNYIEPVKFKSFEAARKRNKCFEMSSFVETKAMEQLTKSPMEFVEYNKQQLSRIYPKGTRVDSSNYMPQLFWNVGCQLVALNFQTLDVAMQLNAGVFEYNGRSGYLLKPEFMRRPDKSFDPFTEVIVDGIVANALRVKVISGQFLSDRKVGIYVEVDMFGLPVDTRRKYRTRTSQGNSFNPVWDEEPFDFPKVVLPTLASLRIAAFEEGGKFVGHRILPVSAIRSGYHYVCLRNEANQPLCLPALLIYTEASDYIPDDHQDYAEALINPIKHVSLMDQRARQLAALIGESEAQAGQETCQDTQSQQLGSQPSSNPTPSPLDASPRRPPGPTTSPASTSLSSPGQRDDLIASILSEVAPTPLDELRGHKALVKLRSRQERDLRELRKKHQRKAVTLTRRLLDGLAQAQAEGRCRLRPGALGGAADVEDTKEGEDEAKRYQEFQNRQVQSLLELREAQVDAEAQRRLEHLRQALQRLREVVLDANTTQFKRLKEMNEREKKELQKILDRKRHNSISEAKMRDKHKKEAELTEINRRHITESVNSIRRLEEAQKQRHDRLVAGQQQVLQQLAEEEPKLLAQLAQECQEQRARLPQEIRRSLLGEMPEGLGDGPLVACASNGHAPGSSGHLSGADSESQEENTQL

[3] = target: Glyceraldehyde-3-phosphate dehydrogenase (Homo sapiens, UniProt P04406)
Bcl-2-related protein A1 [4] = target: T3, Bcl-2-related protein A1 (Mus musculus, UniProt Q07440); assay: Bfl-1 binding inhibitors, SAR follow-up, biochemical, fluorescence polarization (AID 1070)
T3 sequence (Q07440 whole entry): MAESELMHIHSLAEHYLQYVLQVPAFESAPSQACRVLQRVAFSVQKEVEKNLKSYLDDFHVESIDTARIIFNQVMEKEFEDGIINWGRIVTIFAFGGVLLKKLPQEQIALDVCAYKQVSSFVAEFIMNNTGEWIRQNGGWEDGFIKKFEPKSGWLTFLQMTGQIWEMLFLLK

Bcl-2-related protein A1 [5] = target: T3, Bcl-2-related protein A1; assay: small-molecule antagonists of Bfl-1/BH3 interaction – biochemical, TR-FRET, mouse Bfl-1, confirmation (AID 621);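 further: TR-FRET binding of GST-Bfl-1 to FITC-labelled Bid peptide via terbium antibody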
[6] = viability of uninfected HEp-2 cells – cell-based, HTS, cytotoxicity control for RSV inhibitor project, dose response (AID 2410); assay type: functional; details: human respiratory syncytial virus
[7] = target: G-protein coupled receptor 55 (Homo sapiens, UniProt Q9Y2T6); assay: inhibition of LPI-stimulated GPR55 beta-arrestin translocation – imaging, U2OS, beta-arrestin-GFP, LPI agonist, primary screen (AID 2013); assay type: functional;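 further: antagonist potency measured as reduced agonist-driven arrestin aggregation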
Estrogen receptor = target: T4, Estrogen receptor (Homo sapiens, UniProt P03372);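 further: potency for inhibiting coactivator peptide recruitment to the receptor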
T4 sequence (P03372 whole entry): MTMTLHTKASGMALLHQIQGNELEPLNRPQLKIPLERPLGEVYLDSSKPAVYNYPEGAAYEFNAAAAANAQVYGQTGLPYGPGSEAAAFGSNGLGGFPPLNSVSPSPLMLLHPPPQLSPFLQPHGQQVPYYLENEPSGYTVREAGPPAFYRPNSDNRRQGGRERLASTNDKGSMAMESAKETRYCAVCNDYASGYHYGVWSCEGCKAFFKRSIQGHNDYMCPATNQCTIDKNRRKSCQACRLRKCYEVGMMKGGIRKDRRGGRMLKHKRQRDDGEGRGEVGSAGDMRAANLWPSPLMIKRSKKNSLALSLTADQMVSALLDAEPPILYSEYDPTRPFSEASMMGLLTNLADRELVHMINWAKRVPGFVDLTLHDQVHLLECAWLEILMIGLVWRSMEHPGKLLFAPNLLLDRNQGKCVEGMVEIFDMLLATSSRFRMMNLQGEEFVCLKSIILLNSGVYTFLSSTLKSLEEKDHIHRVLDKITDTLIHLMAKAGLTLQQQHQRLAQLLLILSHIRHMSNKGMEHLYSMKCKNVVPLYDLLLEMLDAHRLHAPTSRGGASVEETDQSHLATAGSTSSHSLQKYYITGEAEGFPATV

[8] = target: T5, Carboxy-terminal domain RNA polymerase II polypeptide A small phosphatase 1 (Homo sapiens, UniProt Q9GZU7); assay: CTDSP1 inhibitors, concentration-response, biochemical, absorbance readout, ultra-high-throughput screen actives (AID 540297); assay type: functional
T5 sequence (Q9GZU7 whole entry): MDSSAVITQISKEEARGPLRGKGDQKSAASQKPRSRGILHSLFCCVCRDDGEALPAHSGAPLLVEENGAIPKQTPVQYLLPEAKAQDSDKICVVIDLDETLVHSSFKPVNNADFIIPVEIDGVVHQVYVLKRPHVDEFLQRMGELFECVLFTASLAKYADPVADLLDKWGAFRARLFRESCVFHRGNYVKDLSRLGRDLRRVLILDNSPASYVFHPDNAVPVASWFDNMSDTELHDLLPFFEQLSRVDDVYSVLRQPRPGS

[9] = target: Eukaryotic translation initiation factor 4E (Mus musculus, UniProt P63073); assay: blockers of eIF4G binding by eIF4E – biochemical, TR-FRET, dose response (AID 855); assay type: functional;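 further: potency for disrupting eIF4E binding to eIF4GI seen as loss of FRET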
[10] = target: T6, Mannose-6-phosphate isomerase (Homo sapiens, UniProt P34949); assay: MPI inhibition at elevated mannose 6-phosphate – biochemical, fluorescence intensity, high mannose 6-phosphate, primary screen (AID 1220)
T6 sequence (P34949 whole entry): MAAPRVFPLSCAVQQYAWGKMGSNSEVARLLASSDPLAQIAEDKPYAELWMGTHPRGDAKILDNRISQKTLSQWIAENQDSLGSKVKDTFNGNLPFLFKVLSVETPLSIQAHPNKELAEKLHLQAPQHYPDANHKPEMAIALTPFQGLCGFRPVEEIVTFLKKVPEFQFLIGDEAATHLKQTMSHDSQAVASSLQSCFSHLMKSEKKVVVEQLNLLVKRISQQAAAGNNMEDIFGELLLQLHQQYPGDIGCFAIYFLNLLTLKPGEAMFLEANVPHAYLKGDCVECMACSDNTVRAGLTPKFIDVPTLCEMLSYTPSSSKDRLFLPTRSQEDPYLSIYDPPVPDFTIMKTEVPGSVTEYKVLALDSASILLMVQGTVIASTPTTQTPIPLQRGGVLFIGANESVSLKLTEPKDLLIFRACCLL

Genome polyprotein = Genome polyprotein (dengue virus type 2, UniProt P29990); assay: flavivirus cap methylation enzyme inhibition – biochemical, confirmation dose response, primary screen (AID 588689); assay type: functional
Chain of Genome polyprotein (P29990 2492-3391 limits assumed): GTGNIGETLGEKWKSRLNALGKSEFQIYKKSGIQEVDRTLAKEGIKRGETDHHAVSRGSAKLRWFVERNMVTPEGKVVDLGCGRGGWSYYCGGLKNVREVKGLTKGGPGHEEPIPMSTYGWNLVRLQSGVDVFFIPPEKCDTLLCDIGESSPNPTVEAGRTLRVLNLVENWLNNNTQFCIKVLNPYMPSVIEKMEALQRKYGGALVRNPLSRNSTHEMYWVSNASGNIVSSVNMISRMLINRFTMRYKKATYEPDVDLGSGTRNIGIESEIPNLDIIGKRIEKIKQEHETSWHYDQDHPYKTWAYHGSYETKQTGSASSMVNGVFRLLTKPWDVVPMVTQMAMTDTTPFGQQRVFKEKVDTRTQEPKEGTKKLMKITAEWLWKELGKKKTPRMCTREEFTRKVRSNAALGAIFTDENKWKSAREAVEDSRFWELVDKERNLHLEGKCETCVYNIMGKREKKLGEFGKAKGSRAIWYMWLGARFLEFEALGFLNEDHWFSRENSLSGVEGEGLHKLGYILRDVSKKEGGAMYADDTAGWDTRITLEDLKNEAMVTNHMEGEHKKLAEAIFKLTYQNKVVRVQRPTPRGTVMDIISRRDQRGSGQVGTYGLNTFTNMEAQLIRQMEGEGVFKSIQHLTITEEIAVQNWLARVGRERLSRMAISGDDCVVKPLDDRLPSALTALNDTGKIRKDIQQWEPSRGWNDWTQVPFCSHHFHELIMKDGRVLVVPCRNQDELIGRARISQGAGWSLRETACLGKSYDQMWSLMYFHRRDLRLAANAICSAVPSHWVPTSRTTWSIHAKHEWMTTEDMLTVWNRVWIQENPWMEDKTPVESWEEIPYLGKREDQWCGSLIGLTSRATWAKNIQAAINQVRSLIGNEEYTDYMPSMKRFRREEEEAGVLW

Chain of Glyceraldehyde-3-phosphate dehydrogenase (P04406 whole entry): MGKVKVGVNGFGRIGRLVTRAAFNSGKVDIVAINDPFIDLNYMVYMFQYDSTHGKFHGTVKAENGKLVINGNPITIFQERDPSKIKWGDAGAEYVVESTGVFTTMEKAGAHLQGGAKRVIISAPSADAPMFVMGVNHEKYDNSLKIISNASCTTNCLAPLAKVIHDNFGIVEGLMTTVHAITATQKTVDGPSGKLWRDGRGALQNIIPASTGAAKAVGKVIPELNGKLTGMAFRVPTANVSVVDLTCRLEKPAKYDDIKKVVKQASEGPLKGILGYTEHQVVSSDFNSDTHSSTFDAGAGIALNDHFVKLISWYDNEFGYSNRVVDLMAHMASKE
Chain of Estrogen receptor beta (Q92731 whole entry): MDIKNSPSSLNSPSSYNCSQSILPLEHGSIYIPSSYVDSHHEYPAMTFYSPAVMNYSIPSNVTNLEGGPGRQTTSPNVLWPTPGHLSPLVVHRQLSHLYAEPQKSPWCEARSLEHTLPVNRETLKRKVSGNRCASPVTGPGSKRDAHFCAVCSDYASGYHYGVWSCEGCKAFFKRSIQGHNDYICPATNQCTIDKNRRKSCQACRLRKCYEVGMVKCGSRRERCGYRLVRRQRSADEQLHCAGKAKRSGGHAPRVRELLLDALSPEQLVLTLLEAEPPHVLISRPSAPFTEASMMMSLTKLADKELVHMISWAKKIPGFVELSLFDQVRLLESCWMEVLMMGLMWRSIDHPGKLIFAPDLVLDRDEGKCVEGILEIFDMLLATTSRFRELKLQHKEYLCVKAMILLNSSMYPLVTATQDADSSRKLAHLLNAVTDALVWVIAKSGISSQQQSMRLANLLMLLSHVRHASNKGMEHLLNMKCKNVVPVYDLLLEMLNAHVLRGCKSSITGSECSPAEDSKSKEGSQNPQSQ
Chain of G-protein coupled receptor 55 (Q9Y2T6 whole entry): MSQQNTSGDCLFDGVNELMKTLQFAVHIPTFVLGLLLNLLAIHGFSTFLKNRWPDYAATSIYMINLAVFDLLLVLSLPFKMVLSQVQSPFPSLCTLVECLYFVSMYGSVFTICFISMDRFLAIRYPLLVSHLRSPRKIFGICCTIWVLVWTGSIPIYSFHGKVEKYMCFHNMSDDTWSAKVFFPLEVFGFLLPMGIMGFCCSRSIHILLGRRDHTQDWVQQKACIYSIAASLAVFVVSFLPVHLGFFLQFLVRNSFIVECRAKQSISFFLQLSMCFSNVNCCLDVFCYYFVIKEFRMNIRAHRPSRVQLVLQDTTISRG
Chain of Eukaryotic translation initiation factor 4E (P63073 whole entry): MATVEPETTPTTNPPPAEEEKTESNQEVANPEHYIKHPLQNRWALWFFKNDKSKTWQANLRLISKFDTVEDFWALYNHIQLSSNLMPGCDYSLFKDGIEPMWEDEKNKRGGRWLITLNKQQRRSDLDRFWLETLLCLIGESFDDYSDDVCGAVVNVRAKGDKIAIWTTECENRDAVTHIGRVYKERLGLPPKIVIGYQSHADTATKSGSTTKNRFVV
Chain of NS3 (A3EZJ3 whole entry): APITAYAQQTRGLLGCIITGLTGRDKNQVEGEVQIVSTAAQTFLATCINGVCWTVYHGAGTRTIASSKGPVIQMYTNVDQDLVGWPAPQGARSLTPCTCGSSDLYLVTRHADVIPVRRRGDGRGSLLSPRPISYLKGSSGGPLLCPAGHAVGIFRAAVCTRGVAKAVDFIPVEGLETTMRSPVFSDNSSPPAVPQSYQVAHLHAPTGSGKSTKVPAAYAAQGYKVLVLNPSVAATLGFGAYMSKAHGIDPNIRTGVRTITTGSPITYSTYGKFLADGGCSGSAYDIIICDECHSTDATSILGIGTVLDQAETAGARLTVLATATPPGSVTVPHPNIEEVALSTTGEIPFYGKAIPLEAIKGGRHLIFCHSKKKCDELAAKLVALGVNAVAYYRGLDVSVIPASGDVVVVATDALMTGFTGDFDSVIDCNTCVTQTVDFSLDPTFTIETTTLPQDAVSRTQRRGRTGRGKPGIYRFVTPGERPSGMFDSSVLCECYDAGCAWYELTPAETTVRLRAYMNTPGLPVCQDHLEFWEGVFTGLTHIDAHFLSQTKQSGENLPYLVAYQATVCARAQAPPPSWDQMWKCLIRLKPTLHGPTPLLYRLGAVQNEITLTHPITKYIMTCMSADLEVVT

## Cc1cccc(N2C(=O)C(O)=C(C(=O)c3cccs3)C2c2cccc(Oc3ccccc3)c2)n1 (centres undefined)
NS3
  IC50: 3.02 µM (active)

## O=C(Nc1ccc(F)cc1F)c1noc2c1CCC2
Estrogen receptor beta
  IC50: > 50 µM (not active)

## CCc1cccc(NC(=O)CN(c2ccc(OC)cc2)S(=O)(=O)c2c(C)n[nH]c2C)c1
[1]
  IC50: > 123 µM (inactive)
[2]
  IC50: > 123 µM (inactive)

## O=C1C(Cl)=C(Cl)C(=O)N1c1cccc([N+](=O)[O-])c1
[3]
  IC50: > 100 µM (not active)
Bcl-2-related protein A1 [4]
  IC50: 11.9 µM (active)
Bcl-2-related protein A1 [5]
  IC50: 16.4 µM (active)

## COc1ccc(-n2c(SCC(=O)/C(C#N)=C(\C)N)nc3ccccc3c2=O)cc1OC
cells
  IC50: 2.62 µM (active)

## CN1CCN(C2=C(Cl)C(=O)N(c3c(Cl)cccc3Cl)C2=O)CC1
[3]
  IC50: > 100 µM (not active)
Bcl-2-related protein A1 [4]
  IC50: 13.4 µM (active)
Bcl-2-related protein A1 [5]
  IC50: 3.72 µM (active)

## O=C(O)c1ccccc1Nc1ccc(OC(F)F)cc1
[6]
  CC50: 23.8 µM (active)
cells
  IC50: 40.9 µM (active)

## O=C(Nc1ccccc1Cl)C(Cl)C(=O)c1ccccc1 (centres undefined)
[7]
  IC50: 11.2 µM (inactive)

## CSc1nc(N)c(C(=O)NC2CCCCC2)s1
[1]
  IC50: > 123 µM (inactive)
[2]
  IC50: > 123 µM (inactive)

## O=C(CSc1nc(-c2ccc(F)cc2)cs1)NC(=O)NCc1ccco1
Estrogen receptor
  IC50: > 50 µM (not active)
[8]
  IC50: 18.8 µM (active)

## c1ccc2[nH]c(SN3CCOCC3)nc2c1
[9]
  IC50: 27.5 µM (active)
[10]
  IC50: > 50 µM (not active)

## O=C1C(Cl)=C(N2CCN(CCNCc3ccccn3)CC2)C(=O)N1c1ccc(Cl)c(Cl)c1
[3]
  IC50: > 100 µM (not active)
Bcl-2-related protein A1 [4]
  IC50: 16.3 µM (active)
Bcl-2-related protein A1 [5]
  IC50: 8.14 µM (active)

## C=CCn1c(=O)[nH]c2cc(C(=O)N3CCN(c4ccc(C(C)=O)cc4)CC3)ccc2c1=O
Estrogen receptor
  IC50: > 50 µM (not active)

## Cc1sc2nc(C3CC3)nc(SCC(=O)N3c4ccccc4CC3C)c2c1C (centres undefined)
[6]
  CC50: 7.61 µM (active)
cells
  IC50: 3.98 µM (active)

## COC(=O)c1cc(NC2c3ccccc3C(=O)N2c2ccc(Cl)cn2)cc(C(=O)OC)c1 (centres undefined)
Estrogen receptor
  IC50: > 50 µM (not active)

## N#Cc1c(NC(=O)CN2CCN(c3ccccc3)CC2)sc2c1CCC2
Estrogen receptor beta
  IC50: 44.5 µM (not active)

## Cc1ccc(C23CC4CC(CC(C(=O)NCC(=O)O)(C4)C2)C3)cc1
[1]
  IC50: > 122 µM (inactive)
[2]
  IC50: > 122 µM (inactive)

## COc1cc(Cl)cc(C(c2c(C(=O)O)[nH]c3ccccc23)c2c(C(=O)O)[nH]c3ccccc23)c1O
[1]
  IC50: 54 µM (inactive)
Genome polyprotein
  IC50: 16.9 µM (active)
[2]
  IC50: > 122 µM (inactive)

## OCCC1CN(Cc2cccn2-c2nccs2)CCN1CCc1ccccc1 (centres undefined)
cells
  IC50: 30.3 µM (active)
